These results are taken from patent publication US8288441B2, “Compositions comprising a physiological coolant” (Givaudan Nederland Services B.V., priority 2007, dated 2012).

The experiment has as its system forearm skin. The experiment in a line: Perception of cooling after applying aqueous ethanol solutions to the forearms of volunteers. It is filed as in vivo, human. The text has this:
A simple aqueous ethanol solution (50:50) containing 1% by weight of lactoyl ethanolamide was applied to one forearm. The aqueous ethanol solution alone (control) was then applied to the other forearm at a similar dosage, and the perception of cooling from either arm noted. This was repeated on 10 volunteers in total.
A simple aqueous ethanol solution (50:50) containing 0.2% by weight of L-menthol and 1% by weight of lactoyl ethanolamide was applied to one forearm at a concentration of 2 drops per 10 square centimetres of skin. The aqueous ethanol solution containing just 0.2% by weight L-menthol was then applied to the other forearm at the same dose, and the perception of cooling from either arm noted. This was repeated on 10 volunteers.
A simple aqueous ethanol solution (50:50) containing 0.2% by weight of L-menthol and 0.5% by weight of lactoyl ethanolamide was applied to one forearm at a concentration of 2 drops per 10 square centimetres of skin. The aqueous ethanol solution containing 0.2% by weight L-menthol was then applied to the other forearm at the same dose, and the perception of cooling from either arm noted over 4 hours at 30 minute intervals. This was repeated on 12 volunteers.
A simple aqueous ethanol solution (50:50) containing 1% by weight of menthyl lactate and 1% by weight of lactoyl ethanolamide was applied to one forearm at a concentration of 2 drops per 10 square centimetres of skin. The aqueous ethanol solution containing 1% by weight menthyl lactate was then applied to the other forearm at the same dose, and the perception of cooling from either arm noted over 4 hours at 30 minute intervals. This was repeated on 12 volunteers.
A simple aqueous ethanol solution (50:50) containing 1.0% by weight of menthone glyceryl ketal and 0.5% by weight of lactoyl ethanolamide was applied to one forearm at a concentration of 2 drops per 10 square centimetres of skin. The aqueous ethanol solution containing 1% by weight menthone glyceryl ketal was then applied to the other forearm at the same dose, and the perception of cooling from either arm noted over 4 hours at 1 hour intervals. This was repeated on 10 volunteers.
A simple aqueous ethanol solution (50:50) containing 0.75% by weight of menthyl glyceryl ether and 0.5% by weight of lactoyl ethanolamide was applied to one forearm at a concentration of 2 drops per 10 square centimetres of skin. An aqueous ethanol solution containing 1% by weight menthyl glyceryl ether was then applied to the other forearm at the same dose, and the perception of cooling from either arm noted over a 4 hour period. This was repeated on 12 volunteers.
A simple aqueous ethanol solution (50:50) containing 1% by weight of menthyl pyrrolidone carboxylate and 0.5% by weight of lactoyl ethanolamide was applied to one forearm at a concentration of 2 drops per 10 square centimetres of skin. An aqueous ethanol solution containing 1% by weight menthyl pyrrolidone carboxylate was then applied to the other forearm at the same dose and the perception of cooling from either arm noted over a 6 hour period. This was repeated on 33 volunteers.

Setting [1] is: Example 7, 1% menthyl pyrrolidone carboxylate + 0.5% lactoyl ethanolamide vs 1% menthyl pyrrolidone carboxylate alone, 6 hour period, 33 volunteers.

`CC(O)C(=O)NCCO` (stereo not shown) [lactoyl ethanolamide, N-lactoyl ethanolamide]: the “cooling perception versus placebo solution” value (Example 1, 1% by weight lactoyl ethanolamide in aqueous ethanol (50:50) vs aqueous ethanol alone, other forearm, 10 volunteers) is “no difference in cooling perception”. The “cooling perception versus coolant alone” value (Example 2, 0.2% L-menthol + 1% lactoyl ethanolamide vs 0.2% L-menthol alone, 2 drops per 10 square centimetres, 10 volunteers) is “higher cooling perception”. For the same compound, under setting [1], the “level of cooling versus coolant alone” value is “higher level of cooling” and the “time for which the improved cooling perception was sustained” value was “at least 6 hours”. Take `CC1CCC(C(C)C)C(OC(=O)C(C)O)C1` (stereo not shown) [menthyl lactate]: the “period of time over which cooling was felt” value (Example 4, 1% menthyl lactate with or without 1% lactoyl ethanolamide, noted over 4 hours at 30 minute intervals, 12 volunteers) is reported as “about 2 hours”. On to `CC(C)[C@@H]1CC[C@@H](C)C[C@H]1O` [L-menthol], for which, for the setting “Example 3, 0.2% L-menthol with or without 0.5% lactoyl ethanolamide, noted over 4 hours at 30 minute intervals, 12 volunteers”, the “period of time over which cooling was felt” value is “about 2 hours”.

For the compound `CC1CCC(C(C)C)C2(C1)OCC(CO)O2` (stereo not shown) [menthone glyceryl ketal], the “period of time over which cooling was felt” value (Example 5, 1% menthone glyceryl ketal with or without 0.5% lactoyl ethanolamide, noted over 4 hours at 1 hour intervals, 10 volunteers) is listed as “about 3 hours”.
